# pIC50: −log10 of the molar value.
# Molecular target: T1, recombinant METTL3/METTL14 complex (Homo sapiens, UniProt Q86U44)
# T1 construct: purchased Active Motif 311970; host or cells: Sf9 cells
# Assay: METTL3/14 Scintillation Proximity Assay (SPA), RNA methyltransferase activity
# Format: biochemical
# Settings: 5.31 nM METTL3/14 complex, 250 nM RNA substrate, 1 μM 3H-SAM, 90 min; for compounds marked * best of the two separated forms
# T1 sequence (Q86U44 whole entry): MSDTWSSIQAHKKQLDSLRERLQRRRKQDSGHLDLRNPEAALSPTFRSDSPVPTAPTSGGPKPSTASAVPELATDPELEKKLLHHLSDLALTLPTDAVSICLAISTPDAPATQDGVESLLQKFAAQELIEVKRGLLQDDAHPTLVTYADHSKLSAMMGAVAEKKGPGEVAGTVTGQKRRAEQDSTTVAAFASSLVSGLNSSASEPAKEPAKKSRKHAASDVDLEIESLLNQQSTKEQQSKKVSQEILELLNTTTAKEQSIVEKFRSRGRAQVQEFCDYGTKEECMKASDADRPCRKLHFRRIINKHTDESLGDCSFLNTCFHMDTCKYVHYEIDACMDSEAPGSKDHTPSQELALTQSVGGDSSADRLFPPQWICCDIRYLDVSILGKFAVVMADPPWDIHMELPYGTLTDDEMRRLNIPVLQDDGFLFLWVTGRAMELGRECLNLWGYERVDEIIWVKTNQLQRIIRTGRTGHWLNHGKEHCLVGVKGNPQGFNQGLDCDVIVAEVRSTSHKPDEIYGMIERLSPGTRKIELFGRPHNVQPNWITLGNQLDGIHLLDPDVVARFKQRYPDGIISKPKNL
# T1 sequence (Q9HCE5 whole entry partner): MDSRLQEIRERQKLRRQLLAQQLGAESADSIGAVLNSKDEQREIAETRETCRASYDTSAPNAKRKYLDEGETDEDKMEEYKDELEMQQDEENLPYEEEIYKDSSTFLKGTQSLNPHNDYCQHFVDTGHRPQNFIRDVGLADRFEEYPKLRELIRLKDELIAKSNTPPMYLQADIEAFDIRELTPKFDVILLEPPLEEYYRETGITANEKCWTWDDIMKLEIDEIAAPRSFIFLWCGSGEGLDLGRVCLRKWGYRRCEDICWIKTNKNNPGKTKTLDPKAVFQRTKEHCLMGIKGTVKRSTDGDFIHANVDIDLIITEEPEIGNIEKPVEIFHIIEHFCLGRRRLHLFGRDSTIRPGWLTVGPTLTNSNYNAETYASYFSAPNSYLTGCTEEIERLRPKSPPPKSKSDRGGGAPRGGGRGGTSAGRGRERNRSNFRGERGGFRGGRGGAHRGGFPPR
row,Structure (SMILES),pIC50
1,"CC(n1cc(-c2cncc(Cl)c2)nn1)n1ccc(N2CCC[C@@H](NCC3CCC3)C2)cc1=O (mixture of isomers) [Compound 078, 1-(1-(4-(5-chloropyridin-3-yl)-1H-1,2,3-triazol-1-yl)ethyl)-4-((R)-3-((cyclobutylmethyl)amino)piperidin-1-yl)pyridin-2(1H)-one]",≥ 7.30
2,"Cc1cncc(-c2cn(C(C)n3ccc(N4CCC[C@@H](NCC5CCC5)C4)cc3=O)nn2)c1 (mixture of isomers) [Compound 080, 4-((R)-3-((cyclobutylmethyl)amino)piperidin-1-yl)-1-(1-(4-(5-methylpyridin-3-yl)-1H-1,2,3-triazol-1-yl)ethyl)pyridin-2(1H)-one]",≥ 7.30
3,"CNc1ccn2c(=O)cc(C(=O)NC(C)c3ccc(N4CCC[C@@H](NCC5CCC5)C4)nn3)nc2c1 (mixture of isomers) [Compound 091, N-(1-(6-((R)-3-((cyclobutylmethyl)amino)piperidin-1-yl)pyridazin-3-yl)ethyl)-8-(methylamino)-4-oxo-4H-pyrido[1,2-a]pyrimidine-2-carboxamide]",≥ 7.30
4,"COc1ccc(C(=O)NC(C)c2ccc(N3CCC[C@@H](NCC4CCC4)C3)nn2)c2cn[nH]c12 (mixture of isomers) [Compound 092, N-(1-(6-((R)-3-((cyclobutylmethyl)amino)piperidin-1-yl)pyridazin-3-yl)ethyl)-7-methoxy-1H-indazole-4-carboxamide]",≥ 7.30
5,"CNc1cncc(-c2cn(C(C)n3ccc(N4CCC[C@@H](NCC5CCC5)C4)cc3=O)nn2)c1 (mixture of isomers) [Compound 096, 4-((R)-3-((cyclobutylmethyl)amino)piperidin-1-yl)-1-(1-(4-(5-(methylamino)pyridin-3-yl)-1H-1,2,3-triazol-1-yl)ethyl)pyridin-2(1H)-one]",≥ 7.30
6,"CC(c1ccc(N2CCC[C@@H](NCC3CCC3)C2)cn1)n1cc(-c2cc(=O)n3ccccc3n2)nn1 (mixture of isomers) [Compound 099, 2-(1-(1-(5-((R)-3-((cyclobutylmethyl)amino)piperidin-1-yl)pyridin-2-yl)ethyl)-1H-1,2,3-triazol-4-yl)-4H-pyrido[1,2-a]pyrimidin-4-one]",≥ 7.30
7,"CCOc1cncc(-c2cn(C(C)n3ccc(N4CCC[C@@H](NCC5CCC5)C4)cc3=O)nn2)c1 (mixture of isomers) [Compound 103, 4-((R)-3-((cyclobutylmethyl)amino)piperidin-1-yl)-1-(1-(4-(5-ethoxypyridin-3-yl)-1H-1,2,3-triazol-1-yl)ethyl)pyridin-2(1H)-one]",≥ 7.30
8,"COc1cncc(-c2nnn(C(C)n3ccc(N4CCC[C@@H](NCC5CCC5)C4)cc3=O)n2)c1 (mixture of isomers) [Compound 106, 4-((R)-3-((cyclobutylmethyl)amino)piperidin-1-yl)-1-(1-(5-(5-methoxypyridin-3-yl)-2H-tetrazol-2-yl)ethyl)pyridin-2(1H)-one]",≥ 7.30
9,"CC(NC(=S)c1cc(=O)n2ccccc2n1)c1ccc(N2CCC[C@@H](NCC3CCC3)C2)nn1 (mixture of isomers) [Compound 111, N-(1-(6-((R)-3-((cyclobutylmethyl)amino)piperidin-1-yl)pyridazin-3-yl)ethyl)-4-oxo-4H-pyrido[1,2-a]pyrimidine-2-carbothioamide]",6.30 to 7.30
10,"CC(NC(=O)c1cc(=O)n2ccccc2n1)c1ccc(N2CCC[C@@H](NCC3CC3)C2)cn1 (mixture of isomers) [Compound 112, N-(1-(5-((R)-3-((cyclopropylmethyl)amino)piperidin-1-Yl)pyridin-2-yl)ethyl) -4-oxo-4H-pyrido[1,2-a]pyrimidine-2-carboxamide]",≥ 7.30
11,"COc1cncc(-n2cc(C(C)n3ccc(N4CCC[C@@H](NCC5CCC5)C4)cc3=O)cn2)c1 (mixture of isomers) [Compound 120, 4-((R)-3-((cyclobutylmethyl)amino)piperidin-1-yl)-1-(1-(1-(5-methoxypyridin-3-yl)-1H-pyrazol-4-yl)ethyl)pyridin-2(1H)-one]",≥ 7.30
12,"CNc1cnnc(-c2cn(C(C)n3ccc(N4CCC[C@@H](NCC5CCC5)C4)cc3=O)nn2)c1 (mixture of isomers) [Compound 122, 4-((R)-3-((cyclobutylmethyl)amino)piperidin-1-yl)-1-(1-(4-(5-(methylamino)pyridazin-3-yl)-1H-1,2,3-triazol-1-yl)ethyl)pyridin-2(1H)-one]",≥ 7.30
13,"CC(n1cc(-c2cncc(N3CCOCC3)c2)nn1)n1ccc(N2CCC[C@@H](NCC3CCC3)C2)cc1=O (mixture of isomers) [Compound 129, 4-((R)-3-((cyclobutylmethyl)amino)piperidin-1-yl)-1-(1-(4-(5-morpholinopyridin-3-yl)-1H-1,2,3-triazol-1-yl)ethyl)pyridin-2(1H)-one]",≥ 7.30
14,"COc1cncc(-c2cc(C(C)n3ccc(N4CCC[C@@H](NCC5CCC5)C4)cc3=O)on2)c1 (mixture of isomers) [Compound 130, 4-((R)-3-((cyclobutylmethyl)amino)piperidin-1-yl)-1-(1-(3-(5-methoxypyridin-3-yl)isoxazol-5-yl)ethyl)pyridin-2(1H)-one]",≥ 7.30
15,"COc1cncc(-n2cc(C(C)n3ccc(N4CCC[C@@H](NCC5CCC5)C4)cc3=O)nn2)c1 (mixture of isomers) [Compound 132, 4-((R)-3-((cyclobutylmethyl)amino)piperidin-1-yl)-1-(1-(1-(5-methoxypyridin-3-yl)-1H-1,2,3-triazol-4-yl)ethyl)pyridin-2(1H)-one]",≥ 7.30
16,"CC(c1ccc(N2CCC[C@@H](NCC3CCC3)C2)nn1)n1cc(-c2cncc(N(C)C)c2)nn1 (mixture of isomers) [Compound 133, 5-(1-(1-(6-((R)-3-((cyclobutylmethyl)amino)piperidin-1-yl)pyridazin-3-yl)ethyl)-1H-1,2,3-triazol-4-yl)-N,N-dimethylpyridin-3-amine]",≥ 7.30
17,"CC(n1cc(-c2cncc(-n3cccn3)c2)nn1)n1ccc(N2CCC[C@@H](NCC3CCC3)C2)cc1=O (mixture of isomers) [Compound 146, 1-(1-(4-(5-(1H-pyrazol-1-yl)pyridin-3-yl)-1H-1,2,3-triazol-1-yl)ethyl)-4-((R)-3-((cyclobutylmethyl)amino)piperidin-1-yl)pyridin-2(1H)-one]",≥ 7.30
18,"CC(C(=O)Nc1cncc(N(C)C)c1)n1ccc(N2CCC[C@@H](NCC3CCC3)C2)cc1=O (mixture of isomers) [Compound 162, 2-(4-((R)-3-((cyclobutylmethyl)amino)piperidin-1-yl)-2-oxopyridin-1(2H)-yl)-N-(5-(dimethylamino)pyridin-3-yl)propanamide]",6.30 to 7.30
19,CC1CCCN1c1cncc(-c2cn(C(C)n3ccc(N4CCC[C@@H](NCC5CCC5)C4)cc3=O)nn2)c1 (mixture of isomers) [Compound 172],6.30 to 7.30

row,Structure (SMILES),pIC50
1,"COc1cncc(-c2cc(C(C)n3ccc(N4CCC[C@@H](NCC5CCC5)C4)cc3=O)sn2)c1 (mixture of isomers) [Compound 204, 4-((R)-3-((cyclobutylmethyl)amino)piperidin-1-yl)-1-(1-(3-(5-methoxypyridin-3-yl)isothiazol-5-yl)ethyl)pyridin-2(1H)-one]",≥ 7.30
2,"CC(c1cnn(-c2cc(N(C)C)cnn2)c1)n1ccc(N2CCC[C@@H](NCC3CC3)C2)cc1=O (mixture of isomers) [Compound 224, 4-((R)-3-((cyclopropylmethyl)amino)piperidin-1-yl)-1-(1-(1-(5-(dimethylamino)pyridazin-3-yl)-1H-pyrazol-4-yl)ethyl)pyridin-2(1H)-one]",≥ 7.30
3,"COc1cc(-c2cn(Cc3ccc(N4CCC[C@@H](NC5CCOC5)C4)nn3)nn2)c2cn[nH]c2c1 (single isomer, unassigned) [Compound 033]",≥ 7.30
4,"COc1cc(-c2cn(Cc3ccc(N4CCC[C@@H](NC(C)C5CC5)C4)nn3)nn2)c2cn[nH]c2c1 (single isomer, unassigned) [Compound 045]",≥ 7.30
5,"COc1cncc(-c2cn(C(c3ccc(N4CCC[C@@H](NCC5CCC5)C4)nn3)C(F)(F)F)nn2)c1 (single isomer, unassigned) [Compound 064]",≥ 7.30
6,"COc1cncc(-c2cn(C(c3ccc(N4CCC[C@@H](NCC5CCC5)C4)nn3)C3CC3)nn2)c1 (single isomer, unassigned) [Compound 084]",≥ 7.30
7,"COc1cncc(-c2cn(C(C)n3ccc(N4CCC[C@@H](NCC5CCC5)C4)cc3=O)nn2)n1 (single isomer, unassigned) [Compound 105]",≥ 7.30
8,"COc1cnc(C#N)c(-c2cn(C(C)n3ccc(N4CCC[C@@H](NCC5CCC5)C4)cc3=O)nn2)c1 (single isomer, unassigned) [Compound 109]",≥ 7.30
9,"CC(NC(=O)c1cc(=S)n2ccccc2n1)c1ccc(N2CCC[C@@H](NCC3CCC3)C2)nn1 (single isomer, unassigned) [Compound 110]",≥ 7.30
10,"CC(NC(=O)c1cc(=O)n2ccccc2n1)c1ccc(N2CCC[C@@H](NC3CCCC3)C2)cn1 (single isomer, unassigned) [Compound 117]",6.30 to 7.30
11,"COc1cnnc(-c2cn(C(C)c3ccc(N4CCC[C@@H](NCC5CCC5)C4)nn3)nn2)c1 (single isomer, unassigned) [Compound 137]",6.30 to 7.30
12,"CC(n1cc(-c2cncc(Br)c2)nn1)n1ccc(N2CCC[C@@H](NCC3CCC3)C2)cc1=O (single isomer, unassigned) [Compound 152]",≥ 7.30
13,"COc1cncc(-c2ncc(C(C)(O)c3ccc(N4CCC[C@@H](NCC5CCC5)C4)cn3)s2)c1 (single isomer, unassigned) [Compound 165]",≥ 7.30
14,"COc1cc(-c2ncc(C(C)c3ccc(N4CCC[C@@H](NCC5CCC5)C4)cn3)s2)c2cn[nH]c2c1 (single isomer, unassigned) [Compound 167]",≥ 7.30
15,"CC(n1cnc(-c2cc(=O)n3ccccc3n2)c1)n1ccc(N2CCC[C@@H](NCC3CCC3)C2)cc1=O (single isomer, unassigned) [Compound 170]",≥ 7.30
16,"COc1cncc(-c2nnn(C(C)c3ccc(N4CCC[C@@H](NCC5CCC5)C4)nn3)n2)c1 (single isomer, unassigned) [Compound 190]",≥ 7.30
17,"CC(n1cc(-c2cncc(N(C)C(F)(F)F)c2)nn1)n1ccc(N2CCC[C@@H](NCC3CC3)C2)cc1=O (single isomer, unassigned) [Compound 236]",≥ 7.30
18,"Cc1cncc(-c2cn(C(C)n3ccc(N4CCC[C@@H](NCC5CC5)C4)cc3=O)nn2)n1 (single isomer, unassigned) [Compound 255]",6.30 to 7.30

# From US20250002475A1 (EPICS THERAPEUTICS, priority 2023, published 2025)
